Experiments:
housefly = assay: Insecticidal activity against housefly (diet incorporation test); format: in vivo; conditions: Musca domestica, 72 h, 3rd instar larvae, read-out: Mortality of housefly (%)
Procedure: Diet Incorporation Tests: the test compound was dissolved with 90% acetone to obtain the mother liquor after weigh accurately with an electronic balance. The required concentration solution was got by diluting to the mother liquor with a certain concentration milk powder solution according to the designed doses in the experiment. Then, the diluted concentration solution was evenly put into the petri dishes with diameter of 6 cm inside which filter paper was placed by using a transferring-liquid gun ([…], solution each petri dish). Finally the 3rd instars of larvae were put into petri dishes with 10 each petri dish, and 3 replicates were set for each treatment. Then the insects were maintained in observation room (25° C., 60˜70% R.H.). Scores were conducted and mortalities were calculated after 72 h.

diamond back moth [1] = assay: Field trial against diamond back moth on cabbage; format: in vivo, Plutella xylostella
Procedure: (§1) Calculation Method: Decrease rate of insects (%)=(the number of insects before application−the number of insects after application) the number of insects before application×100 Control efficacy (%)=(decrease rate of insects in treated area decrease rate of insects in blank comparative area)/(100−decrease rate of insects in blank comparative area)×100
The trial was carried out in the test filed of Shenyang Research Institute of Chemical industry Ltd. The trial crop is cabbage (Variety: Zhonggan NO 8.). The dosage of the compound 1 are 75, 105, 150 g a.i./hm^2 and comparative agent pyridalyl is 105 g a.i./hm^2. The agent was applied once on 13 Jun. 2011. The application tool is Shandongweishi WS-16P type backpack manual sprayer. Evenly spraying to whole cabbage which is in rosette stage was conducted. Diamond back moth is originated at the peak time. The plot area is 10 m^2, 3 replicates and randomized block arrangement were set. The amount of spray liquid is 750 L/hm^2. It was sunny with the highest temperature of 29° C., and the lowest of 17° C. on the day of the application of the spray. The methods of investigation and calculation are the same as Example 13.

diamond back moth [2] = assay: Insecticidal activity against diamond back moth in greenhouse (airbrush spraying of cabbage leaf discs); format: in vivo; conditions: Plutella xylostella, foliar, 72 h, parallel determination, read-out: Mortality of diamond back moth (%)
Procedure: (§2) Compounds were dissolved in mixed solvent (acetone:methanol=1:1), and diluted to required concentration with water containing 0.1% of tweed 80.
The method of spraying by airbrush: The cabbage leaves were made into plates of 2 cm diameter by use of punch. A test solution (0.5 ml) was sprayed by airbrush at the pressure of 0.7 kg/cm^2 to both sides of every plate. 10 Second instar larvae were put into the petri-dishes after the leaf disc air-dried and 3 replicates were set for each treatment. Then the insects were maintained in observation room (25° C., 60˜70% R.H.), Scores were conducted and mortalities were calculated after 72 h.

[3] = system: cabbage butterfly (Pierisrapae Linne); assay: Field trial against cabbage butterfly; format: in vivo
Procedure: as §1
The trial was carried out in a farmer's vegetable field in Xiangcheng District Suzhou City. The variety of the cabbage is Xinxia 50. The dosage of the compound 1 are 75, 105, 150 g a.i./hm^2 and the comparative agent pyridalyl is 105 g a.i./hm^2. The agent was applied on 26 May 2011. The application tool is Singaporean Linong HD-400 type backpack spray. Evenly spraying to whole cabbage which is at vegetative growth phase was conducted, Cabbage butterfly is at a peak time of 1-3 instars of larvae. The plot area is 15 m^2, 4 replicates and randomized block arrangement were set. The amount of spray liquid is 750 L/hm^2. It was from sunny to cloudy with the highest temperature of 22.6° C., and the lowest of 17.8° C. on the day of the application of the spray. Chosen 10 plants from each plot and scored the larvae at different instars at fixing time. The base number was investigated before treatment. The number of living larvae was counted after 1 day, 4 days, 7 days and 12 days respectively after application and control efficacy was calculated.
Calculation method: the same as Example 13.

armyworm = assay: Insecticidal activity against armyworm in greenhouse (airbrush spraying of corn leaf discs); format: in vivo; conditions: Mythimna separata, foliar, 72 h, parallel determination
Procedure: as §2
The method of spraying by airbrush: The corn leaves were made into plates of 2 cm diameter by use of punch. A test solution (0.5 ml) was sprayed by airbrush at the pressure of 0.7 kg/cm^2 to both sides of every plate. 10 Second instar larvae were put into the Petri-dishes after the leaf disc air-dried and 3 replicates were set thr each treatment. Then the insects were maintained in observation room (25° C., 60˜70% R.H.). Scores were conducted and mortalities were calculated after 72 h.

beet armyworm = assay: Insecticidal activity against beet armyworm (24 well-plate artificial diet emulsion method); format: in vivo; conditions: Spodoptera exigua, 72 h, read-out: Mortality of beet armyworm (%)
Procedure: as §2
24 well-plate artificial diet emulsion method: artificial food was added to each well of the 24 well-plate, after the artificial food was cooled, the prepared solution were added into the 24 well-plate according to the experimental design by order of chemical concentrations from low to high, by gently shaking the even emulsion film can be formed on the surface of the diet. 24 neat and healthy larvae were put into the 24 well-plate (one larvae each well) after the film was air-dried and 3 replicates were set for each treatment. Then the insects were maintained in observation room (25° C., 60˜70% R.H.). Scores were conducted and mortalities were calculated after 72 h.

[4] = 75 g a.i./hm^2, 10% EC, 1 day after treatment
[5] = 105 g a.i./hm^2, 10% EC, 1 day after treatment
[6] = 150 g a.i./hm^2, 10% EC, 1 day after treatment

## FC(F)(F)c1ccc(Oc2ccc(OCCCOc3c(Cl)cc(OCC=C(Cl)Cl)cc3Cl)cc2)nc1 [Compound 1]
housefly; 10 mg/L
  mortality at 10 µg/mL: 66.7%
housefly; 20 mg/L
  mortality at 20 µg/mL: 100%
Diamond back moth [1]; [4]
  Control efficacy (%): 86.0%
Diamond back moth [1]; 75 g a.i./hm^2, 10% EC, 3 days after treatment
  Control efficacy (%): 98.7%
Diamond back moth [1]; 75 g a.i./hm^2, 10% EC, 7 days after treatment
  Control efficacy (%): 97.6%
Diamond back moth [1]; [5]
  Control efficacy (%): 93.4%
Diamond back moth [1]; 105 g a.i./hm^2, 10% EC, 3 days after treatment
  Control efficacy (%): 97.0%
Diamond back moth [1]; 105 g a.i./hm^2, 10% EC, 7 days after treatment
  Control efficacy (%): 97.8%
Diamond back moth [1]; [6]
  Control efficacy (%): 90.4%
Diamond back moth [1]; 150 g a.i./hm^2, 10% EC, 3 days after treatment
  Control efficacy (%): 97.9%
Diamond back moth [1]; 150 g a.i./hm^2, 10% EC, 7 days after treatment
  Control efficacy (%): 97.9%
Diamond back moth [2]; 6.25 mg/L
  mortality at 6.25 µg/mL: 100%
Diamond back moth [2]; 25 mg/L
  mortality at 25 µg/mL: 100%
Diamond back moth [2]; 50 mg/L
  mortality at 50 µg/mL: 100%
[3]; [4]
  Control efficiency (%): 40.4%
[3]; 75 g a.i./hm^2, 10% EC, 4 day after treatment
  Control efficiency (%): 84.1%
[3]; 75 g a.i./hm^2, 10% EC, 7 day after treatment
  Control efficiency (%): 86.7%
[3]; 75 g a.i./hm^2, 10% EC, 12 days after treatment
  Control efficiency (%): 81.2%
[3]; [5]
  Control efficiency (%): 44.0%
[3]; 105 g a.i./hm^2, 10% EC, 4 day after treatment
  Control efficiency (%): 87.9%
[3]; 105 g a.i./hm^2, 10% EC, 7 day after treatment
  Control efficiency (%): 92.6%
[3]; 105 g a.i./hm^2, 10% EC, 12 days after treatment
  Control efficiency (%): 85.0%
[3]; [6]
  Control efficiency (%): 45.2%
[3]; 150 g a.i./hm^2, 10% EC, 4 day after treatment
  Control efficiency (%): 89.6%
[3]; 150 g a.i./hm^2, 10% EC, 7 day after treatment
  Control efficiency (%): 92.8%
[3]; 150 g a.i./hm^2, 10% EC, 12 days after treatment
  Control efficiency (%): 85.4%
armyworm; 10 mg/L
  mortality at 10 µg/mL: 100%
armyworm; 100 mg/L
  mortality at 100 µg/mL: 100%
Beet armyworm; 2.5 mg/L
  mortality at 2.5 µg/mL: 47.8%
Beet armyworm; 10 mg/L
  mortality at 10 µg/mL: 100%
